Results on 24 compounds are retold here after the Kinase Knowledgebase extract (Sharma et al. 2016).

In experiment [1] the target is MAPK14 (UniProt Q16539). In words: Inhibition of MAPK Activity.
Experiment [2] has as its target EGFR (UniProt P00533).
Experiment [3] addresses MAPK14 (UniProt Q16539).
For experiment [4], the target named is MAPK14 (UniProt Q16539). The source holds these as a separate data set.
Experiment [5] relates to CDK2 (sprague-dawley rat). The following applies: dose or concentration not given here.
Experiment [6] has as its target MAPK14 (human) (UniProt Q16539). In words: IL-6 Inhibition. The note with it: hiv-1.
Experiment [7] relates to MAPK14 (murine). In words: p38 Kinase Inhibition (MAPKAPK2 / L1210/VCR Cells). The following applies: dose or concentration not given here.
Experiment [8] concerns MAPK14 (murine). In words: p38 Kinase Inhibition (ATF-2 / L1210/VCR Cells). The following applies: dose or concentration not given here.
The target in experiment [9] is EGFR (UniProt P00533). The source holds these as a separate data set.
EGFR, sequence (P00533 whole entry, looked up): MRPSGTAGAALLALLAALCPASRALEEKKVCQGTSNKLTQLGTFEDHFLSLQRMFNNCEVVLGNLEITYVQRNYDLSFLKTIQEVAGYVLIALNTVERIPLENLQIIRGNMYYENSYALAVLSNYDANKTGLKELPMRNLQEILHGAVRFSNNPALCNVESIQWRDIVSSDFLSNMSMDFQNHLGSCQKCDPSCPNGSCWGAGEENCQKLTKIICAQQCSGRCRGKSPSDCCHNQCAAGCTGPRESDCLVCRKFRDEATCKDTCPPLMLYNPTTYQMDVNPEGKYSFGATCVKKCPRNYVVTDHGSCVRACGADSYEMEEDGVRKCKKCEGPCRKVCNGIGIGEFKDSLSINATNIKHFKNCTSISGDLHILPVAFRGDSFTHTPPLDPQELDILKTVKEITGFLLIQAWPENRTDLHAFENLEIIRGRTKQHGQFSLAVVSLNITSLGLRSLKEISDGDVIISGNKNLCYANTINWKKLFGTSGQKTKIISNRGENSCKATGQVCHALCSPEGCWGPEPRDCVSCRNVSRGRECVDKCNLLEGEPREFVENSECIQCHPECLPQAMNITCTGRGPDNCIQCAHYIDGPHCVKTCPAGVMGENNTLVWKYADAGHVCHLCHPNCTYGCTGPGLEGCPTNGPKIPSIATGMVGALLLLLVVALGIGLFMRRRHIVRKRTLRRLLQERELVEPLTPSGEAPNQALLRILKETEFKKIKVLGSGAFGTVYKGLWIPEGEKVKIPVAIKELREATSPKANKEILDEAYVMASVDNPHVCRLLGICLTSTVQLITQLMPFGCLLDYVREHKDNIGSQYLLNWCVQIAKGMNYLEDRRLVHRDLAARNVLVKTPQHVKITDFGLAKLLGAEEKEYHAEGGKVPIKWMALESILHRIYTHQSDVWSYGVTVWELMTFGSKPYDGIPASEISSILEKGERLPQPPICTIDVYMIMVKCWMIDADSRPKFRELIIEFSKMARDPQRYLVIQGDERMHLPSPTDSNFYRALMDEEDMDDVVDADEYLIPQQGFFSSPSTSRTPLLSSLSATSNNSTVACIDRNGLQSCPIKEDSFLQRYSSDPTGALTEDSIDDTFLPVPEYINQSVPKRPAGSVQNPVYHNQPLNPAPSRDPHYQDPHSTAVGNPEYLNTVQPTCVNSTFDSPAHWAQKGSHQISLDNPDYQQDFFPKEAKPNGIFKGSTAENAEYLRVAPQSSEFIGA
Experiment [10] addresses EGFR (UniProt P00533). The source holds these as a separate data set.
The target in experiment [11] is EGFR (human) (UniProt P00533). The note with it: mda-mb-468.
EGFR (human), sequence (P00533 whole entry, looked up): as above
Experiment [12] addresses EGFR (human) (UniProt P00533). The note with it: kb.
The target of experiment [13] is EGFR (human) (UniProt P00533). The note with it: a431.
Experiment [14] relates to MAPK14, Q16539 [p38 (T106M) Inhibition]. Nature of the experiment: p38 (T106M) Inhibition.
MAPK14, Q16539 [p38 (T106M) Inhibition], sequence (Q16539 whole entry, looked up, stated change not applied): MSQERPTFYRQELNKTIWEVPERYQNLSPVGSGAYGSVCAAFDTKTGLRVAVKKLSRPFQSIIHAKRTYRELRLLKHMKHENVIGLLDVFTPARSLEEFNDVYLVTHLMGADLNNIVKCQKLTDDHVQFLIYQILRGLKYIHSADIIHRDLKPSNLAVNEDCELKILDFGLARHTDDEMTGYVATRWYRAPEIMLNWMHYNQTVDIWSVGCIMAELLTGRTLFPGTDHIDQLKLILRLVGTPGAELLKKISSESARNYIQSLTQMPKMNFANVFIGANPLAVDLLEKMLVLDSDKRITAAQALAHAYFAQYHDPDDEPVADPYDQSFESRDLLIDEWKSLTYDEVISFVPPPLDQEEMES
In experiment [15] the target is EGFR (human) (UniProt P00533). The following applies: mda-mb-468. The source holds these as a separate data set.
For experiment [16], the target named is MAPK14 (UniProt Q16539). In words: p38-alpha2 Inhibition (E. coli). The following applies: concentration not given here.
Experiment [17] concerns the target EGFR (murine) (UniProt P00533). The following applies: balb/mk cells.
Experiment [18] has as its target MAPK14 (human) (UniProt Q16539). Nature of the experiment: TNF-alpha Inhibition (PBMC).
For experiment [19] the target is unchanged. In words: TNF-alpha Inhibition (Human Whole Blood). The note with it: blood cells.
Experiment [20] addresses MAPK14 (UniProt Q16539). Nature of the experiment: MAPK Inhibition.
Experiment [21] deals with CDK2 (UniProt P24941). In words: Enzyme Assay. The following applies: concentration not given here.
Experiment [22] has as its system MAPK14 (rat). In words: MAPK Inhibiton (TNF Stimulated). The note with it: iec-6, dose or concentration not given here.
Experiment [23] addresses EGFR (UniProt P00533). The source holds these as a separate data set.
Experiment [24] deals with EGFR (human) (UniProt P00533). The note with it: a431. The source holds these as a separate data set.
The target of experiment [25] is MAPK14 (human) (UniProt Q16539). In words: Activation of p38 in Human Platelets.
MAPK14 (human), sequence (Q16539 whole entry, looked up): as the sequence (Q16539 whole entry, looked up, stated change not applied) above
Experiment [26] deals with EGFR (UniProt P00533). This is another data set of the same source.
Experiment [27] addresses MAPK14 (human) (UniProt Q16539). In words: MAPK14 Kinase Inhibition.
Experiment [28] shares this target. In words: TNFalpha Inhibition. The note with it: pbmc.
Experiment [29] deals with EGFR (UniProt P00533). This is another data set of the same source.
Experiment [30] has as its target EGFR (UniProt P00533). The source holds these as a separate data set.
Experiment [31] has as its target EGFR (UniProt P00533). The source holds these as a separate data set.
Experiment [32] concerns the target EGFR (human) (UniProt P00533). The note with it: hs-27.
The test system of experiment [33] is MAPK14 (Lewis rat). In words: SCW-induced Arthritis (Lewis Rat).

The structures appear in SMILES notation. Several values for one entry are separate records, joined by “and”; a condition that tells them apart may be missing. Identical values can stand only once.

MAPK14, sequence (Q16539 whole entry, looked up): as the sequence (Q16539 whole entry, looked up, stated change not applied) above
EGFR (murine), sequence (P00533 whole entry, looked up): as the sequence (P00533 whole entry, looked up) above

Take `COC(=O)[C@@]1(Cc2ccc(O)c(CC=C(C)C)c2)OC(=O)C(O)=C1c1ccc(O)cc1`: the values for the IC50 in [1] and in [2] were 94 µM and over 590 µM, respectively.

Consider `O=C(CN1CCNCC1)Nc1cccc(Oc2nccc(-c3c(-c4ccc(F)cc4)ncn3C3CCNCC3)n2)c1`, for which the IC50 in [3] and in experiment [4] was under 50 µM each time.

With `CN1CC[C@@H](c2c(O)cc(O)c3c(=O)cc(-c4ccccc4Cl)oc23)[C@@H](O)C1`, the response in [5] came out at 4.2%.

As to `Cn1c2ccccc2c2c3c(c4c5ccccc5n(CCC#N)c4c21)CNC3=O`, in [6], the IC50 is under 25 nM.

For `CC[C@]1(O)C[C@@H]2CN(CCc3c([nH]c4ccccc34)[C@@](C(=O)OC)(c3cc4c(cc3OC)N(C=O)[C@H]3[C@@](O)(C(=O)OC)[C@H](OC(C)=O)[C@]5(CC)C=CCN6CC[C@]43C65)C2)C1` (stereo partly drawn), the activity in experiment [7] was found to be 120%; in experiment [8] it was 53.3%.

In turn, `O=C(/C=C/c1ccc(O)c(O)c1)c1ccc(O)cc1O` had an IC50 in experiment [9] of 16 µM.

The compound `O=C(O)CCC1C(=S)Nc2ccccc21` (stereo not drawn) had an IC50 in [10] of over 1620 nM.

`O=C(Nc1cc(-c2ccccc2)n[nH]1)c1ccccc1` displayed an IC50 in experiment [11] of over 30 µM.

`Fc1ccc(Nc2ncnc3cnc(NN4CCOCC4)nc23)cc1Cl`: the IC50 in experiment [12] came out at 100 nM.

For `COc1cc2ncnc(Nc3ccc(F)c(Cl)c3)c2cc1OCCC1OCCO1`, the ED50 in experiment [13] is 50 mg/kg.

In [14], `Fc1ccc(-c2ncn(C3CCNCC3)c2-c2ccncc2)cc1` returned an inhibition of 0%.

Consider `C=C1CC(C)OC(=O)c2c(O)cc(OC)cc2C(=C)C(=C)CC(O)C(O)C(=O)C1=C` (stereo not drawn), for which, in experiment [15], the IC50 is over 30 µM.

As to `COC(=O)c1sc(C(C)(C)C)cc1NC(=O)Nc1ccc(C(N)=O)cc1`, the inhibition in [16] is 23%.

In turn, `Cc1ccc(NC(=O)c2ccc(CN3CCN(C)CC3)cc2)cc1Nc1nccc(-c2cccnc2)n1` returned an IC50 in [17] of 12.7 µM.

Take `C[C@H](Nc1nccc(-c2cc(N3CCOCC3)nnc2-c2cccc(C(F)(F)F)c2)n1)c1ccccc1`: the IC50 amounted to 292 nM in experiment [18] and 1200 nM in experiment [19].

Take `COc1cccc(-c2cc(=O)c3ccccc3o2)c1N`: the IC50 in [20] was 2000 nM. The activity in [21] was determined as 95%; in experiment [22], 111%.

Regarding `O=C(Nc1cc2ccccc2cn1)c1ccccc1NCc1ccncc1`, the IC50 in experiment [23] was over 10 µM.

As for `COc1cc2cc3ncc(C#N)c(Nc4ccc(F)c(Cl)c4)c3cc2cc1OC`, the IC50 in experiment [24] is 680 nM.

On to `CCCCC/C=C\C/C=C\C/C=C\C/C=C\CCCC(=O)O`, for which, in [25], the phosphorylation is 254 cpm and 231 cpm.

Regarding `C/C=C/C(=O)Nc1ccc2c(Nc3cccc(Br)c3)ncnc2c1`, the IC50 in [26] amounted to 0.68 nM. That is a sub-nanomolar value.

For the compound `CN(C)CCCN(C)c1ccc2ncn(-c3cccc(NC(=O)c4ccnc(N5CCOCC5)c4)c3)c(=O)c2c1`, the IC50 worked out at 50 nM in experiment [27] and 5 µM in [28].

Turning to `Clc1cccc(Nc2ncnc3ccccc23)c1`, the Ki in experiment [29] and in experiment [30] was 16 to 32 nM in each case. For the same compound, the IC50 in experiment [31] came to 75 nM.

For `C=CC(=O)Nc1ccc2c(Nc3cccc(Br)c3)ncnc2c1`, the IC50 in experiment [32] was found to be 6.4 nM.

In the case of `CC1(C(=O)N2CCOCC2)COC(c2nc(-c3ccc(F)cc3)c(-c3ccnc(NC4CC4)n3)[nH]2)OC1` (stereo not drawn), the AUC in [33] was 2 and 2.1 and 3.3.

The term IC50 denotes the midpoint of a concentration-inhibition curve. Read a low IC50 as inhibition by little substance. As usually defined, the ED50 is the dose that gives a 50% effect, or the effect in half of the subjects. In general, inhibition refers to the change of the read-out against control, counted positive when it falls. High values mean a response far below the control, low ones a response near the control. By Ki is commonly meant the dissociation constant of the complex between target and ligand, obtained from inhibition or displacement. Low values mean higher affinity, high ones lower affinity.
